Data on two compounds can be found in US20220133652A1, “A FORMULATION FOR IMPROVING SEIZURE CONTROL” (ZOGENIX INTERNATIONAL LIMITED, priority 2019, published 2022).

Data set [1] relates to super-refractory status epilepticus. In words: Case study: fenfluramine in patient in medically-induced coma, weaning from general anesthesia. It is filed as in vivo, human. The protocol: Fenfluramine was tested on a patient with an established diagnosis Dravet Syndrome (DS) (February, 2008) and having undergone confirmatory genetic testing, they were hospitalized in November 2018 and had been in an intensive care unit (ICU) under general anesthesia for management of super-refractory status epilepticus. At the beginning of the testing period, they had been in the ICU for around 32 days, and multiple attempts to wean them from anesthetic agents (pentobarbital and ketamine) were unsuccessful, with repetitive and then continuous tonic seizures recurring within hours. Table 1, below, provides a complete list of all anti-epileptic drugs (AEDs) assayed in managing the patient's seizures. Some had been determined to lack efficacy, while those marked as current were still being administered.
After these other AEDs failed, the attending physician tested fenfluramine, beginning on Dec. 19, 2018. A baseline echocardiogram was taken with the patient still in ICU setting. The patient's medications (beyond anesthetic agents) at that time included valproic acid, levetiracetam, clobazam, phenobarbital, ketosis, and VNS therapy, and felbamate was most recently added after failure of the last attempt to withdraw anesthesia.
(§1) Fenfluramine was administered as an oral solution via a gastric feeding tube at an initial dose of 0.5 mg/kg/day for about 5 days. An echocardiogram was performed to screen for cardiac valve abnormalities (CVD) and/or pulmonary arterial hypertension (PAH) and to establish a baseline for subsequent echocardiograms which will be used to monitor the patient's cardiovascular status over the treatment period, and repeated approximately every 3 months over the next year of continuing fenfluramine administration. […] After 4 days of fenfluramine administration Patient was able to be weaned from general anesthesia without return to seizures and the immediate crisis resolved, however, seizures began to recur after 3 more days without anesthesia and the fenfluramine dosage was adjusted up to 0.8 mg/kg/day and bolus doses of valproate or phenobarbital were administered as needed. The treating physician assessed the patient as having emerged from the SRSE crisis about 2 weeks after initiation of fenfluramine therapy. The patient remains on fenfluramine, along with levetiracetam, clobazam and valproate, and was discharged from the ICU about 1 month (approximately 32 days) after initiation of fenfluramine therapy.

The nature of data set [2]: Serum samples of patient analyzed for fenfluramine and norfenfluramine. It is filed as in vivo, human. The protocol: as §1
The test system of data set [3] is self-induced photosensitive seizures. The note with it: four cases; cited from earlier work.
The subject of data set [4] is pattern sensitivity-induced seizures. The note with it: one child; cited from earlier work.
The next data set relates to refractory epilepsy. The note with it: dose of 0.5 to 1 mg/kg/day, children; cited from earlier work.
The conditions of data set [5]: reason for withdrawal from the US market in 1997; cited from earlier work.

Consider `CCNC(C)Cc1cccc(C(F)(F)F)c1` (racemic) [Fenfluramine, (RS)-N-ethyl-1-[3-(trifluoromethyl)phenyl]propan-2-amine], for which the “Duration of administration after which patient was weaned from general anesthesia without return to seizures” value in data set [1] (0.5 mg/kg/day oral solution via gastric feeding tube, adjunctive to other AEDs, one patient) is reported as 4 days. Further, in data set [1] (0.5 then 0.8 mg/kg/day, bolus valproate or phenobarbital as needed), the “Time after initiation of therapy until patient assessed as emerged from the SRSE crisis” value is “about 2 weeks”. The “Time without anesthesia until seizures began to recur” value in data set [1] (after weaning, at 0.5 mg/kg/day, dose then adjusted up to 0.8 mg/kg/day) is 3 days. Besides, the “Seizure control in patients with SRSE” value in data set [1] (conclusion from the case of patient) is “improved seizure control”. For the same compound, the “Time after initiation of therapy until discharge from the ICU” value in data set [1] (patient remains on fenfluramine with levetiracetam, clobazam and valproate) was “approximately 32 days”. For the same compound, the concentration at 20 days after start of dosing in data set [2] (human, 0.8 mg/kg/day, SUB 001, Visit 1, Timepoint 99, SAE 8 Jan. 2019, fenfluramine oral solution via gastric feeding tube, read-out: Conc. in serum) worked out at 0.0177 µg/mL. Also, the concentration at 21 days after start of dosing in data set [2] (human, 0.8 mg/kg/day, SUB 001, Visit 2, Timepoint 99, SAE 9 Jan. 2019, fenfluramine oral solution via gastric feeding tube, read-out: Conc. in serum) was determined as 0.0178 µg/mL. Also, the concentration at 22 days after start of dosing in data set [2] (human, 0.8 mg/kg/day, SUB 001, Visit 3, Timepoint 99, SAE 10 Jan. 2019, fenfluramine oral solution via gastric feeding tube, read-out: Conc. in serum) was 0.0222 µg/mL. In data set [3], the “Response of self-induced photosensitive seizures to treatment” value was “responded to treatment”. Also, the “Effect on self-induced seizures” value in data set [4] is on record as “successfully terminated these self-induced seizures”. In addition, the “Effect on number of seizures” value with refractory epilepsy is listed as “reduction in the number of seizures”. For the same compound, the “Adverse effects associated with use” value in data set [5] was “cardiac valvular fibrosis and pulmonary hypertension”.

Consider `CC(N)Cc1cccc(C(F)(F)F)c1` (stereo not drawn) [Norfenfluramine], for which the Conc. in serum stood at 0.0238 µg/mL in data set [2] (SUB 001, Visit 1, Timepoint 99, SAE 8 Jan. 2019, fenfluramine oral solution via gastric feeding tube); 0.0231 µg/mL in data set [2] (SUB 001, Visit 2, Timepoint 99, SAE 9 Jan. 2019, fenfluramine oral solution via gastric feeding tube); 0.0276 µg/mL in data set [2] (SUB 001, Visit 3, Timepoint 99, SAE 10 Jan. 2019, fenfluramine oral solution via gastric feeding tube).
